In ChEMBL document CHEMBL3885861, “Open TG-GATES”:

Species: Rattus norvegicus
Test: Open TG-GATES - Regimen: Single
Type: toxicity, organism-based, Sprague-Dawley
Parameters: regimen Single, gender Male, age 6 weeks
Conditions: in vivo, po, 15 mg/kg, route gavage, dose level Low; for APTT / Bas / Eos / Fbg / Hb / Ht / Lym / MCH / MCHC / MCV / Mono / Neu / PT / Plat / RBC / Ret / WBC: tissue Blood; for KIDNEY_L / KIDNEY_R / KIDNEY_TOTAL: tissue Kidney; for LIVER: tissue Liver; for A/G / ALP / ALT / AST / BUN / CRE / Ca / Cl / DBIL / GLC / IP / K / LDH / Na / PL / RALB / TBIL / TC / TG / TP / gamma-GTP: tissue Plasma

`Nc1nc(N)c2nc(-c3ccccc3)c(N)nc2n1` was tested, and the TERMINAL_BW (3 h) was 213.1 g, the APTT (3 h) was 16.6 s and the Bas (3 h) was 0%. The Eos (3 h) was 1%, the Fbg (3 h) was 307 mg/dL and the Hb (3 h) was 14.2 g/dL. For the same molecule, the Ht (3 h) was 42.9%, the Lym (3 h) was 78.2% and the MCH (3 h) was 21.5 pg. For the same molecule, the MCHC (3 h) was 33%, the MCV (3 h) was 65.1 fL and the Mono (3 h) was 3.4%. For the same molecule, the Neu (3 h) was 17%, the PT (3 h) was 14.3 s and the Plat (3 h) was 129.9 x10_4/uL. It also gave an RBC (3 h) of 659.2 x10_4/ul, a Ret (3 h) of 7.7% and a WBC (3 h) of 86.3 x10_2/uL. The KIDNEY_L (3 h) was 1 g, the KIDNEY_R (3 h) was 1 g and the KIDNEY_TOTAL (3 h) was 2 g. The LIVER (3 h) was 9.6 g, the A/G (3 h) was 0.9 and the ALP (3 h) was 1340.6 IU/L. The ALT (3 h) was 39.8 IU/L, the AST (3 h) was 73.2 IU/L and the BUN (3 h) was 10.4 mg/dL. The CRE (3 h) was 0.2 mg/dL, the Ca (3 h) was 11 mg/dL and the Cl (3 h) was 105.2 meq/L. For the same molecule, the DBIL (3 h) was 0.008 mg/dL, the GLC (3 h) was 170.2 mg/dL and the IP (3 h) was 8.6 mg/dL. It also gave a K (3 h) of 4.6 meq/L, an LDH (3 h) of 56.2 IU/L and a Na (3 h) of 141.2 meq/L. For the same molecule, the PL (3 h) was 144 mg/dL, the RALB (3 h) was 2.7 g/dL and the TBIL (3 h) was 0.05 mg/dL. It also gave a TC (3 h) of 76.2 mg/dL, a TG (3 h) of 81.4 mg/dL and a TP (3 h) of 5.6 g/dL. It also gave a gamma-GTP (3 h) of 1.2 IU/L, a TERMINAL_BW (6 h) of 211.9 g and an APTT (6 h) of 16.3 s. The Bas (6 h) was 0.4%, the Eos (6 h) was 1% and the Fbg (6 h) was 292.4 mg/dL. For the same molecule, the Hb (6 h) was 13.8 g/dL, the Ht (6 h) was 41.6% and the Lym (6 h) was 76%. For the same molecule, the MCH (6 h) was 21.2 pg, the MCHC (6 h) was 33.2% and the MCV (6 h) was 63.9 fL. The Mono (6 h) was 2.6%, the Neu (6 h) was 19.6% and the PT (6 h) was 14.3 s. For the same molecule, the Plat (6 h) was 117.9 x10_4/uL, the RBC (6 h) was 651.8 x10_4/ul and the Ret (6 h) was 7.8%. The WBC (6 h) was 88.3 x10_2/uL, the KIDNEY_L (6 h) was 1 g and the KIDNEY_R (6 h) was 1 g. The KIDNEY_TOTAL (6 h) was 1.9 g, the LIVER (6 h) was 9 g and the A/G (6 h) was 1. The ALP (6 h) was 1353.4 IU/L, the ALT (6 h) was 38.2 IU/L and the AST (6 h) was 72.8 IU/L. For the same molecule, the BUN (6 h) was 9.2 mg/dL, the CRE (6 h) was 0.2 mg/dL and the Ca (6 h) was 10.8 mg/dL. The Cl (6 h) was 105.6 meq/L, the DBIL (6 h) was 0.008 mg/dL and the GLC (6 h) was 167.8 mg/dL. For the same molecule, the IP (6 h) was 9.9 mg/dL, the K (6 h) was 4.4 meq/L and the LDH (6 h) was 56.4 IU/L. The Na (6 h) was 142.6 meq/L, the PL (6 h) was 138.4 mg/dL and the RALB (6 h) was 2.6 g/dL. For the same molecule, the TBIL (6 h) was 0.062 mg/dL, the TC (6 h) was 77 mg/dL and the TG (6 h) was 49.8 mg/dL. It also gave a TP (6 h) of 5.4 g/dL, a gamma-GTP (6 h) of 1.2 IU/L and a TERMINAL_BW (9 h) of 206.1 g. It also gave an APTT (9 h) of 16.7 s, a Bas (9 h) of 0% and an Eos (9 h) of 0.8%. For the same molecule, the Fbg (9 h) was 322.4 mg/dL, the Hb (9 h) was 14 g/dL and the Ht (9 h) was 42.2%. For the same molecule, the Lym (9 h) was 77.6%, the MCH (9 h) was 21.2 pg and the MCHC (9 h) was 33.2%. The MCV (9 h) was 64 fL, the Mono (9 h) was 2.4% and the Neu (9 h) was 18.2%. For the same molecule, the PT (9 h) was 13.9 s, the Plat (9 h) was 128.2 x10_4/uL and the RBC (9 h) was 659.6 x10_4/ul. The Ret (9 h) was 7.5%, the WBC (9 h) was 82.6 x10_2/uL and the KIDNEY_L (9 h) was 1 g. It also gave a KIDNEY_R (9 h) of 1 g, a KIDNEY_TOTAL (9 h) of 2 g and an LIVER (9 h) of 8.3 g. It also gave an A/G (9 h) of 0.9, an ALP (9 h) of 1426 IU/L and an ALT (9 h) of 39 IU/L. For the same molecule, the AST (9 h) was 67.4 IU/L, the BUN (9 h) was 9.2 mg/dL and the CRE (9 h) was 0.2 mg/dL. For the same molecule, the Ca (9 h) was 10.8 mg/dL, the Cl (9 h) was 106.2 meq/L and the DBIL (9 h) was 0.006 mg/dL. It also gave a GLC (9 h) of 163 mg/dL, an IP (9 h) of 9.9 mg/dL and a K (9 h) of 4.1 meq/L. It also gave an LDH (9 h) of 47.8 IU/L, a Na (9 h) of 143 meq/L and a PL (9 h) of 144 mg/dL. The RALB (9 h) was 2.7 g/dL, the TBIL (9 h) was 0.056 mg/dL and the TC (9 h) was 84.8 mg/dL. For the same molecule, the TG (9 h) was 41.4 mg/dL, the TP (9 h) was 5.5 g/dL and the gamma-GTP (9 h) was 1.2 IU/L. The TERMINAL_BW (24 h) was 226.6 g, the APTT (24 h) was 19 s and the Bas (24 h) was 0%. It also gave an Eos (24 h) of 1%, a Fbg (24 h) of 289.6 mg/dL and a Hb (24 h) of 14 g/dL. The Ht (24 h) was 41.7%, the Lym (24 h) was 83.6% and the MCH (24 h) was 21.1 pg. The MCHC (24 h) was 33.6%, the MCV (24 h) was 62.7 fL and the Mono (24 h) was 1.6%. The Neu (24 h) was 12.8%, the PT (24 h) was 14 s and the Plat (24 h) was 121.6 x10_4/uL. It also gave an RBC (24 h) of 664.8 x10_4/ul, a Ret (24 h) of 6.2% and a WBC (24 h) of 84.7 x10_2/uL. It also gave a KIDNEY_L (24 h) of 1 g, a KIDNEY_R (24 h) of 1 g and a KIDNEY_TOTAL (24 h) of 2 g. The LIVER (24 h) was 10.5 g, the A/G (24 h) was 0.9 and the ALP (24 h) was 1713.2 IU/L. It also gave an ALT (24 h) of 44.8 IU/L, an AST (24 h) of 67.4 IU/L and a BUN (24 h) of 15.2 mg/dL. The CRE (24 h) was 0.2 mg/dL, the Ca (24 h) was 11 mg/dL and the Cl (24 h) was 105.4 meq/L. For the same molecule, the DBIL (24 h) was 0.012 mg/dL, the GLC (24 h) was 183.2 mg/dL and the IP (24 h) was 8.3 mg/dL. The K (24 h) was 4.1 meq/L, the LDH (24 h) was 58.4 IU/L and the Na (24 h) was 143.6 meq/L. The PL (24 h) was 153.2 mg/dL, the RALB (24 h) was 2.7 g/dL and the TBIL (24 h) was 0.044 mg/dL. The TC (24 h) was 79.4 mg/dL, the TG (24 h) was 87.8 mg/dL and the TP (24 h) was 5.4 g/dL. The gamma-GTP (24 h) was 1 IU/L.
